From paper PMC4279419, “Angiostatic, tumor inflammatory and anti-tumor effects of CXCL4^47–70 and CXCL4L1^47–70 in an EGF-dependent breast cancer model” (Oncotarget, 2014)
Where no end group is shown, it is not given here.

Experiments:
[1] = system: CD31-positive vessels of MDA-MB-231 tumors; assay: CD31 immunohistochemistry of resected tumors (vascularization); assay type: in vivo, mice; details: 2.5 μg intratumoral 3×/week; data not shown
Procedure: The impact of peptide treatment on the tumor vasculature was evaluated by quantification of immunohistochemically stained CD31-positive vessels. […] This inconsistency between our observations in vitro and in vivo evokes the question which alternative mechanisms may contribute to the anti-tumoral impact of peptide treatment as evidenced in the MDA-MB-231 tumor model.

[2] = system: CHO/CXCR3A cells; assay: CXCR3A binding (flow cytometry); details: NH2-terminally biotinylated peptides, 3 to 3000 ng/ml, data not shown
Source text: We further tried to reveal the mode of action of CXCL4^47–70 and CXCL4L1^47–70. First, we excluded that either peptide still binds/activates one of the CXCR3 isoforms, the receptors for intact CXCL4 and CXCL4L1.

[3] = system: macrophage markers; assay: qPCR tumor macrophage marker expression; assay type: in vivo, murine; details: 2.5 μg intratumoral 3×/week; 2^−ΔΔCT
Procedure: (§1) The RNeasy Mini Kit (QIAGEN, Venlo, the Netherlands) was used for tumor mRNA extraction. The extracted mRNA was then converted to cDNA making use of the High Capacity cDNA Reverse Transcription Kit (Applied Biosystems, Foster City, CA). Quantitative polymerase chain reactions (qPCR) based on the TaqMan principle were conducted to compare gene expression between samples. Primers and probes (Table 2; Integrated DNA Technologies, Haasrode, Belgium), were diluted to the prescribed working concentrations in RNase-free water and added to the reaction mix in a MicroAmp® fast optical 96-well reaction plate (Applied Biosystems), together with 50 ng sample cDNA per reaction. The actual thermocycler program consisted of 2 minutes on 50 °C, 10 minutes on 95 °C and 40 cycles of 15 seconds on 95 °C followed by 1 minute on 60 °C. Analysis of the obtained CT was based on the 2^−ΔΔC^T method, opting for 18S ribosomal 1 RNA as an internal control.

[4] = system: B16 melanoma; details: previous study by our group; cited from earlier work
Source text: The chemokines CXCL4 and CXCL4L1 have both been attributed anti-tumoral activity as a result of angiostatic action, blockade of lymphatic vessel formation and the attraction of anti-tumoral lymphocytes. CXCL4L1 is considered to be a more powerful angiostatic and anti-tumoral agent than its homologue CXCL4, despite their striking 96% sequence identity. This functional difference has been linked to a single amino acid replacement, causing CXCL4L1 to adapt a unique carboxy-terminal 3D-structure with decreased affinity for GAGs. However, the causal link ...

[5] = system: CXCR3A; assay: Calcium signaling in CXCR3A-transfectants; assay type: cell-based; details: CHO/CXCR3A, one representative experiment out of three; for calcium signal via CXCR3A: 2 μg/ml, fura 2, spectrofluorometer; for inhibition of CXCL10-induced calcium signaling (desensitization): peptide 2 μg/ml, CXCL10 5 ng/ml added 100 s later, fura 2
Source text: We further tried to reveal the mode of action of CXCL4^47–70 and CXCL4L1^47–70. First, we excluded that either peptide still binds/activates one of the CXCR3 isoforms, the receptors for intact CXCL4 and CXCL4L1. […]
inhibit signaling by intact CXCL10. To study interaction of CXCL447–70 and CXCL4L147–70 with CXCR3A, CHO cells stably transfected with CXCR3A were loaded with the fluorescent dye fura 2 (Struyf et al. J. Immunol. 2009, 182:666). Changes in the intracellular Ca2+ concentrations ([Ca2+]i) in response to CXCL447–70 or CXCL4L147–70 treatment were monitored using a spectrofluorometer. The line in the spectra indicates the fluorescence intensity ratio (i.e. the fluorescence intensity measured after excitation at 340 nm divided by the fluorescence intensity measured after excitation at 380 nm). The results shown (one representative experiment out of three) illustrate a desensitization experiment, in which CHO/CXCR3A cells were stimulated first with a peptide (2 µg/ml) and 100 s later with intact CXCL10 […]
peptides induced a rise in [Ca2+]i. When the cells were stimulated with 5 ng/ml intact CXCL10 100 s after peptide treatment, the response […]
interact with CXCR3A. Arrows indicate the time of addition of the stimulus.
(also on this page, place not known: www.impactjournals.com/oncotarget/ Oncotarget, Supplementary Materials 2014 CXCL4 47–70 CXCL4L1 47–70 CXCL4 47–70 CXCL4L1 47–70 CXCL4 47–70) […]

[6] = system: bovine aortic endothelial cells (GM7373); assay: GM7373 proliferation assay (cell counting); assay type: cell-based; details: peptide 0.4 μg/ml, 0.4% FCS, 24 h, cell counts, mean ± s.e.m., n=3; for GM7373 proliferation relative to EGF alone (100%): EGF 10 ng/ml; for GM7373 proliferation relative to FGF2 alone (100%): FGF2 10 ng/ml
Procedure: Cell proliferation assays on GM7373 cells were performed as described. Briefly, subconfluent cultures of GM7373 cells were seeded in 96-well dishes at 65 × 10^3 cells/cm^2. After 16 h, cells were incubated in triplicate in fresh medium containing 0.4% FCS plus FGF1 (30 ng/ml), FGF2 (10 ng/ml), FGF8 (30 ng/ml), EGF (10 ng/ml), VEGF (30 ng/ml), 12-O-tetradecanoyl phorbol 13-acetate (TPA, 10 ng/ml) or 10% FCS in the absence or in the presence of 400 ng/ml of CXCL4^47–70 or CXCL4L1^47–70. After 24 h, cells were trypsinized and counted in a Bürker chamber. Data were expressed as percentages of cell proliferation measured in the presence of the mitogenic stimulus alone.

[7] = system: CD11c; assay: qPCR tumor CD11c mRNA (dendritic cell marker); assay type: in vivo, murine; details: 2.5 μg intratumoral 3×/week; 2^−ΔΔCT; p=0.032, n=10
Procedure: as §1

[8] = system: NOS2; assay: qPCR tumor NOS2 mRNA (M1 marker); assay type: in vivo, murine; details: 2.5 μg intratumoral 3×/week; 2^−ΔΔCT; not reaching statistical significance
Procedure: as §1

[9] = system: F4/80; assay: qPCR tumor F4/80 mRNA; assay type: in vivo, murine; details: 2.5 μg intratumoral 3×/week; 2^−ΔΔCT; p=0.008, n=10
Procedure: as §1

[10] = system: TGM2; assay: qPCR tumor TGM2 mRNA (M2 marker); assay type: in vivo, murine; details: 2.5 μg intratumoral 3×/week; 2^−ΔΔCT
Procedure: as §1

[11] = system: monocytic THP-1; details: as a single stimulus; cited from earlier work
Source text: Perception of the role of the immune system in tumor development has changed over time. Tumor inflammation is indeed the seventh hallmark of malignant disease, but the sizeable myeloid population present has been mostly observed to take on a tumor-promoting role rather than exert its protective, phagocytic and cytotoxic function. This shift could be attributed to the phagocytes' versatility and their ability to adopt distinct phenotypes influenced by locally produced factors. Rather than depleting the tumoral myeloid cell population, it could be beneficial to tackle its pola ...

Substance: CXCL4L1^47–70: synthetic human carboxy-terminal peptide restricted to the last 24 amino acids of CXCL4L1, Fmoc chemistry
- vascularization of resected tumors (CD31-positive vessels) [1]: neither CXCL4^47–70, nor CXCL4L1^47–70 was reflected by a reduced vascularization
- specific binding to CHO/CXCR3A [2]: could not detect specific binding
- macrophage marker expression versus vehicle [3]: No significant changes in macrophage marker expression
- effect in treatment of B16 melanoma [4]: beneficial effects of CXCL4L1^47–70
- calcium signal via CXCR3A [5]: Nor could we detect any calcium signal
- calcium signal via CXCR3A ([5]; listed as CXCL4L147–70): do not induce calcium signaling via CXCR3A
- inhibition of CXCL10-induced calcium signaling (desensitization) [5]: neither peptide (2 μg/ml) was capable of inhibiting calcium signaling
- inhibition of CXCL10-induced calcium signaling (desensitization) ([5]; listed as CXCL4L147–70): equal to the signal obtained after buffer stimulation
- GM7373 proliferation relative to EGF alone (100%) [6]: 49 ± 1%
- GM7373 proliferation relative to FGF2 alone (100%) [6]: 47 ± 4%

Substance: CXCL4^47–70: synthetic human carboxy-terminal peptide restricted to the last 24 amino acids of CXCL4, Fmoc chemistry (NGRKICLDLQAPLYKKIIKKLLES; not fully specified (N-terminus))
- CD11c mRNA versus vehicle [7]: more prominent
- NOS2 mRNA versus control [8]: only modestly increased
- vascularization of resected tumors (CD31-positive vessels) [1]: neither CXCL4^47–70, nor CXCL4L1^47–70 was reflected by a reduced vascularization
- specific binding to CHO/CXCR3A [2]: could not detect specific binding
- F4/80 mRNA level versus control [9]: significantly higher
- TGM2 mRNA versus control [10]: only a modest increase
- THP-1 migration, single stimulus [11]: not to stimulate monocytic THP-1 migration
- calcium signal via CXCR3A [5]: Nor could we detect any calcium signal
- calcium signal via CXCR3A ([5]; listed as CXCL447–70): do not induce calcium signaling via CXCR3A
- inhibition of CXCL10-induced calcium signaling (desensitization) [5]: neither peptide (2 μg/ml) was capable of inhibiting calcium signaling
- inhibition of CXCL10-induced calcium signaling (desensitization) ([5]; listed as CXCL447–70): equal to the signal obtained after buffer stimulation
- GM7373 proliferation relative to EGF alone (100%) [6]: 74 ± 3%
- GM7373 proliferation relative to FGF2 alone (100%) [6]: 28 ± 10%
